# Laboratory results taken from patent US6465204B1, “Amidase” (Diversa Corporation, priority 1996, dated 2002).
# B1: enzyme: purified thermostable amidase derived from Thermococcus GU5L5, 622 amino acid residues (SEQ ID NO:2) (protein)
# chain: MTGIEWNHETFSKFAYLGDPRIRGNLIAYTLTKANMKDNKYESTVVVEDLETGSRRFIENASMPRISPDGRKLAFTCFNEEKKETEIWVADIQTLSAKKVLSTKNVRSMQWNDDSRRLLVVGFKRRDDEDFVFDDDVPVWFDNMGFFDGEKTTFWVLDTEAEEIIEQFEKPRFSSGLWHGDAIVVNVPHREGSKPALFKFYDIVLWKDGEEEKLFERVSFEAVDSDGKRILLRGKKKKRFISEHDWLYLWDGELKPIYEGPLDVWEAKLTEGKVYFLTPDAGRVNLWLWDGKAERVVTGDHWIYGLDVSDGKALLLIMTATRIGELYLYDGELKQVTEYNGPIFRKLKTFEPRHFRFKSKDLEIDGWYLRPEVKEEKAPVIVFVHGGPKGMYGHRFVYEMQLMASKGYYVVFVNPRGSDGYSEDFALRVLERTGLEDFEDIMNGIEEFFKLEPQADRERVGITGISYGGFMTNWALTQSDLFKAGISENGISYWLTSYAFSDIGLWYDVEVIGPNPLENENFRKLSPLFYAQNVKAPILLIHSLEDYRCPLDQSLMFYNVLKDMGKEAYIAIFKRGAHGHSVRGSPRHRPKRYRLFIEFFERKLKKYEEGFEVEKILKGNGN
# Columns and labels:
# [1] = system: Thermococcus GU5L5 amidase; experiment: Substrate specificity of the amidase (fluorogenic substrates); assay type: biochemical; conditions: substrate 100 μM, 1 hour at 70° C.; ratio between substrates
# Experimental: Fifty μL of the ‘600 μM stock solution’ was added to each of the wells of a white condensed plate using the Biomek to yield a final concentration of substrate of ˜100 μM. The fluorescence values were recorded (excitation=400 nm, emission=505 nm) on a plate reading fluorometer immediately after addition of the substrate. The plate was incubated at 70° C. for 60 min. and the fluorescence values were recorded again. The initial and final fluorescence values were subtracted to determine if an active clone was present by an increase in fluorescence over the majority of the other wells.
# The excitation and emission wavelengths for the 7-amido-4-methylcoumarins were 380 and 460 nm respectively, and 326 and 450 for the methylumbelliferone.
# [2] = system: Thermococcus GU5L5 amidase; experiment: Activity and enantioselectivity of the amidase in increasing concentrations of DMF; assay type: biochemical; conditions: for Initial Rate: RT, cell lysate, pH 7.5 Hepes
# Experimental: The activity and enantioselectivity of the amidase in increasing concentrations of dimethyl formamide (DMF) was tested as follows: to each well of a microtiter plate was added 30 μL of 1 mM CBZ-L-arg-AMC or CBZ-D-arg-AMC in DMF, 30 μL of cell lysate containing the amidase activity, and 240 μL of a variable mixture of DMF:pH 7.5, 50 mM Hepes buffer. The reactiosn were incubated at RT for 1 hour and the fluorescence measured at 1 minute intervals.
# [3] = Organic solvent sensitivity: activity of the amidase in increasing concentrations of DMSO; assay type: biochemical, Thermococcus GU5L5
# Experimental: The activity of the amidase in increasing concentrations of dimethyl sulfoxide (DMSO) was tested as follows: to each well of a microtiter plate was added 10 μL of 3 mM CBZ-L-phe-AMC in DMSO, 25 μL of cell lysate containing the amidase activity, and 250 μL of a variable mixture of DMSO:pH 7.5, 50 mM Hepes buffer. The reactions were heated for 1 hour at 70° C. and the fluorescence measured. […] The filled and open boxes represent individual assays.
# [4] = Temperature tolerance of the enzyme; design: species or system Thermococcus GU5L5
Molecule,relative activity of the amidase [1],Initial Rate ([2]; DMF 0.4%) [Fl.U./min],Initial Rate ([2]; DMF 10%) [Fl.U./min],Initial Rate ([2]; DMF 20%) [Fl.U./min],Initial Rate ([2]; DMF 30%) [Fl.U./min],Initial Rate ([2]; DMF 40%) [Fl.U./min],Initial Rate ([2]; DMF 50%) [Fl.U./min],Initial Rate ([2]; DMF 60%) [Fl.U./min],Initial Rate ([2]; DMF 75%) [Fl.U./min],Initial Rate ([2]; DMF 90%) [Fl.U./min],concentration of organic solvent tolerated [3] [% DMSO],selectivity for the L enantiomer of the derivatized amino acid substrate ([2]; CBZ-L-arg-AMC versus CBZ-D-arg-AMC),temperature tolerated [4]
"CSCC[C@H](NC(=O)OCc1ccccc1)C(=O)Nc1ccc2c(C)cc(=O)oc2c1 [CBZ-L-met-AMC, Nα-carbonylbenzyloxy-L-methionine-7-amido-4-methylcoumarin]",1,,,,,,,,,,,,
"Cc1cc(=O)oc2cc(NC(=O)[C@@H](CCCNC(=N)N)NC(=O)OCc3ccccc3)ccc12 [CBZ-D-arg-AMC, Nα-carbonylbenzyloxy-D-arginine-7-amido-4-methylcoumarin]",,0.3,10.1,4.6,1.8,0.9,1.2,1.4,0.1,0.1,,,
"Cc1cc(=O)oc2cc(NC(=O)[C@H](CCCNC(=N)N)NC(=O)OCc3ccccc3)ccc12 [CBZ-L-arg-AMC, Nα-carbonylbenzyloxy-L-arginine-7-amido-4-methylcoumarin]",3,654,2548,1451,541,345,303,190,81,11,,,
"Cc1cc(=O)oc2cc(NC(=O)[C@H](Cc3ccccc3)NC(=O)OCc3ccccc3)ccc12 [CBZ-L-phe-AMC, Nα-carbonylbenzyloxy-L-phenylalanine-7-amido4-methylcoumarin]",3,,,,,,,,,,,,
B1,,,,,,,,,,,> 40,excellent selectivity for the L,at least 70 °C
